# Patent US20240082342A1, “PEPTIDE THERAPEUTICS FOR INCREASING LUNG CELL VIABILITY” (BOARD OF REGENTS, THE UNIVERSITY OF TEXAS SYSTEM, priority 2018, published 2024)
# Entries after “also recorded” stand apart in the source; their conditions may differ.
# Columns and labels:
# [1] = system: ATII cells and BALF of IL-17A treated mice; test: IL-17A-induced lung injury in mice; type: in vivo, mouse; details: for A2EC p53, PAI-1 and apoptosis: WT mice exposed to IL-17A
# Protocol: IL-17A is induced in passive tobacco smoke (PTS) exposed lung injury. […] Further, IL-17A induced ^p15Sp53 was inhibited following treatment of mice CSP7 when compared with those treated with saline and control peptide. To further test whether IL-17A induced ^p15Sp53 alters PAI-1 expression and ATII apoptosis, ATII cells of IL-17A treated mice for PAI-1 and apoptotic markers were analyzed. IL-17A induced the expression of PAI-1 and cl.Cas-3, and inhibited Sirt-1 expression in ATII cells. […] In addition, CSP7 treatment found to inhibit serine phosphorylation of p53 by neutralizing elevated IL-17A due to PTS exposure.
# To test the importance of miR-34a mediated deacetylation of p53 IL-17A or PTS induced lung injury, miR34a conditional knockout mice were treated with tamoxifen. miR34a conditional knockout mice treated with IL-17A (3 μg/mice) was administered with CSP7 and CP a day later. ATII cells isolated from these mice were screened for PAI-1, Sirt-1 and apoptotic markers. […] Further, CSP7 treatment had little effect in miR-34a^cKo mice since these mice resist IL-17A or PTS injury.
# [2] = system: A2Cs of WT mice exposed to tobacco smoke; test: Chronic passive tobacco smoke (20 weeks) lung injury in WT mice, A2C telomere analyses; type: in vivo, mouse; details: 20 weeks smoke
# Protocol: Relative telomere length was also analyzed by qPCR analysis of the genomic DNA as described by Callicott R J et al., (Comp Med 2006; 56:17-22) and Cawthon RM (Nucleic Acids Res 2002; 30:e47-e47). The […] gene was served as the control.
# To test the effect of chronic TS exposure induced lung injury, these mice were exposed to passive TS from 40 research cigarettes over a 4 h period 5 days/week for 20 weeks (˜90 mg/m3 total solid particulates) using a mechanical smoking chamber (Teague Enterprises, Davis, CA) as described earlier. (Bhandary et al, 2015). Control mice were kept in ambient air. After sixteen weeks of daily passive TS exposure, mice with TS exposure injury were treated with CSP7 at a dosage of 1.5 mg/kg body weight daily 5 days/week for the next four weeks. These mice were continued with daily exposure of 4 h of TS during CSP7 treatment. At the end of the experiment (after 20 weeks of TS exposure), the mice were euthanized, and lungs were utilized for further analyses. To expand the local delivery options of CSP7 to directly treat the damaged lung by air-jet milling for dry powder inhalation (DPI). Mice exposed to TSE were treated with CSP7 using a rotating brush generator for 15 min daily for 7 days. Fourteen days later, […] were subjected to daily inhalation of micronized CSP7 (0.05 mg/kg/d) DP through air-jet-milling for seven consecutive days using a rotating brush exposure system. The rotating brush exposure system gave a consistent minimal chamber concentration of 0.1 mg/L. In order to match dosing of DP inhalation, animal exposure times were adjusted to approximately 15 minutes and an estimated dose of 0.05 mg/kg/d or 1.00 microgram/lung was administered. […]
# (§1) Measurement of terminal restriction fragment (telomeric) length. For the determination of telomeric length, the TeloTTAGGG Telomere Length Assay Kit (Roche Diagnostics GmbH) was used. Briefly, genomic DNA was isolated and digested with Hinf1/Rsa. The digested DNA fragments were then separated by electrophoresis on agarose gel followed by Southern blot transfer. The membrane was then hybridized with a telomere specific digoxigenin (DIG)-labelled probe, incubated with anti-DIG alkaline phosphatase, and documented with chemiluminescence detection in gel-doc unit (Bio-Rad Laboratories). Telomeric length was identified by comparing with the pre-labelled molecular weight marker. The relative telomere length was calculated according to the protocol provided. In addition, relative telomere length was analyzed by qPCR analysis of the genomic DNA. (Cawthon, Nucleic Acids Res 2002, 30:e47-e47; Alder et al, Proc Natl Acad Sci USA 2015, 112:5099-5104.) The 36B4 gene was served as the control.
# [3] = system: A2Cs of WT mice with 8X-BLM-induced PF; test: Repeated bleomycin (8X-BLM) induced PF in WT mice, A2C telomere analyses; type: in vivo, mouse
# Protocol: To analyze the effect of BLM, mice were exposed to BLM (40 μg/20 g body weight) once per two week for 16 weeks. Control mice were exposed to normal saline. At 14th week the peptide treatment at a dosage of 30 μg/20 g body weight was initiated and continued on a daily basis for the next 14 days. At the end of the experiment, the mice were euthanized and used for the experiments.
# To evaluate the effect of CSP7 against chronic BLM-induced PF, the mice were exposed to BLM (40 μg/20 g body weight) once every two weeks for 16 weeks as described elsewhere. (Tiwari et al, 2016). Control mice were exposed to normal saline. Fourteen weeks later the CSP7 at a dosage of 1.5 mg/kg body weight was administered by IP injection and continued daily basis for the next two weeks as described elsewhere. (Tiwari et al, 2016; Shetty et al, 2008b). At the end of the experiment, the mice were euthanized and lung tissues and isolated A2Cs from the extracted lung tissues were used for further analysis.
# Detection of telomerase activity. Telomerase activity was detected using a PCR-based telomeric repeat amplification protocol (TRAP) method using the TRAPeze Telomerase Detection Kit (Intergen, Purchase, NY, USA). Briefly, the cells were lysed in CHAPS lysis buffer and quantified by BCA method, and equal quantity of the protein samples was combined with the reaction mix in RNase-free PCR tubes. The PCR amplification was then performed following instruction of the manufacturer. The final PCR product was loaded onto a 12.5% non-denaturing polyacrylamide gel and subjected to electrophoresis. The polyacrylamide gel was stained with ethidium bromide and documented using a gel-doc unit (Bio-Rad Laboratories). The relative quantities of telomerase activity for each sample were calculated according to the instructions provided in the kit.
# as §1
# [4] = system: AT2 cells from COPD lung tissues; test: AT2 cells isolated from COPD lung tissues treated in vitro; type: cell-based, human
# Protocol: Ex vivo studies using human lung tissues without patient identity was approved by the Institutional (UTHSCT) Review Board (IRB) through exempt protocol #12-003. nL and COPD tissues (n=4-5) were treated with or without CSP7 for 72 h ex vivo as described previously (Marudamuthu et al, 2019). Total protein and RNA extracted from the lung tissues were analyzed by Western blotting and qPCR for MUC5AC protein and mRNA, respectively. In separate experiments, AT2 cells isolated from nL and COPD lungs were treated with CSP7 or CP and immunoblotted for changes in senescence or apoptosis, p53, PAI-1 and SP-C expression. Similarly, nL and COPD tissues were treated with or without CSP7 or CP for 72 h ex vivo and AT2 cells isolated from these tissues were analyzed for senescence or apoptosis, p53, PAI-1 and SP-C.
# [5] = AT2 cells from COPD tissue, in vitro
Substance,"A2EC p53, PAI-1 and apoptosis [1]","IHC of lung sections for TRF2, p53, PAI-1, TRF1 [2]",SIAH-1 expression in A2Cs [2],TRF2 and TERT expression in A2Cs [2],"p53, cleaved caspase-3 and β-galactosidase expression in A2Cs (Western blot) [2]",TERT enzyme activity (TRAPeze assay) ([2]; vs CP group),"relative telomere length of A2Cs (qPCR), telomere shortening ([2]; vs control peptide CP)",TERT enzyme activity ([3]; 8X-BLM PF),"TRF1, TRF2, PNUTS and TERT expression in A2Cs ([3]; 8X-BLM PF)","p53, PAI-1, SIAH1/2, caspase-3 activation, β-galactosidase in A2Cs ([3]; 8X-BLM PF)","IHC of lung sections for TRF2, p53, PAI-1, TRF1 ([3]; 8X-BLM PF (FIG. 25E))","telomere length of A2Cs (qPCR) ([3]; 8X-BLM PF, treated two weeks)","SP-C level [4, 5]","p53 and apoptosis [4, 5]",response of AT2 cells from nL tissues ([4]; subjects without COPD),"IL-17A induced serine phosphorylation of p53 (p15Sp53) in ATII cells ([1]; IL-17A treated mice, vs saline and control peptide)",effect in miR-34a^cKO mice ([1]; miR34a conditional knockout mice treated with IL-17A),BALF myeloperoxidase (MPO) activity ([1]; mice with IL-17A or PTS (10 weeks) injury)
"DGIWKASFTTFTVTKYWFYR (listed as Homo sapiens) [CSP, 20 residue caveolin-1 scaffolding domain peptide]","reduced A2EC p53, PAI-1 and apoptosis in vivo",,,,,,,,,,,,,,,,,
"FTTFTVT (listed as Homo sapiens) [CSP7, heptapeptide fragment of the caveolin-1 scaffolding domain peptide CSP]","reduced A2EC p53, PAI-1 and apoptosis in vivo",restoration of TRF2 expression with reduction in p53 and PAI-1 expression,Downregulation of SIAH-1 was significantly more; also recorded: markedly downregulated,restoration of TRF2 and TERT expression,significant decrease; also recorded: markedly suppressed,significantly higher,significant resistance in telomere shortening,significantly reversed,reversed,suppression,"restoration of TRF2 expression with reduction in p53, PAI-1 and TRF1",improved,restored baseline SP-C level,marked suppression of p53 and apoptosis,failed to respond to CSP7 treatment,inhibited,little effect,significantly reduced the MPO activity
"WGIDKAFFTTSTVTYKWFRY [CP, scrambled control peptide with the same amino acid composition as CSP, reference compound]",,,still showed elevated p53 and SIAH-1,,,,,still displayed shortened telomere,still harbor A2Cs with shortened telomere,,,,,remained elevated,,,,
